Strand notation (5' to 3'): a small letter for the sugar, then the base; units joined by * are phosphorothioate-linked, units joined directly phosphodiester-linked; [ ] holds rarer units or linkages, { } end groups; capitals alone tell only the bases. e = 2'-O-(2-methoxyethyl) (MOE); [5mC] = 5-methylcytosine; d = 2'-deoxy (DNA)
Assays:
[1] = system: human Factor 7 mRNA; test: Antisense inhibition of human Factor 7 mRNA in HepB3 cells, 50 nM antisense oligonucleotide, lipofectin; assay type: cell-based; conditions: lipofectin, approximately 24 hours
In short: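 Readout is percent reduction of Factor 7 message compared with untreated cells, after correction for total RNA content quantified by RIBOGREEN®. Cultures were seeded at 4,000 cells per well and treated for about 24 hours before RNA extraction.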

[2] = system: human Factor 7 mRNA; test: Dose-dependent antisense inhibition of human Factor 7 in HepB3 cells, lipofectin; assay type: cell-based; conditions: for percent inhibition of Factor 7 mRNA, relative to untreated control cells: HepB3 cells, approx. 16 hours (Table 14); for percent inhibition of Factor 7: approximately 16 hours
In short: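 HepB3 cells (4,000/well) lipofectin-transfected with antisense oligonucleotide at 3.125 or 6.25 up to 100 nM for ~16 h. Factor 7 mRNA measured by real-time RT-PCR with primer probe set RTS 2927, adjusted to RIBOGREEN total RNA; expressed as percent inhibition versus untreated control cells.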

[3] = Table 1, 50 nM, relative to untreated control cells
[4] = 50 nM antisense oligonucleotide, Factor 7 mRNA by real-time RT-PCR (RTS 2927), relative to untreated control

407939 (antisense eT*eG*e[5mC]*eA*eG*d[5mC]*d[5mC]*d[5mC]*dG*dG*d[5mC]*dA*d[5mC]*d[5mC]*d[5mC]*eA*eG*e[5mC]*eG*eA) [compound 407939]
% Inhibition [1, 3]: 93% | % Inhibition [1, 4]: 76% | percent inhibition of Factor 7 mRNA, relative to untreated control cells ([2]; 3.125 nM): 17% | percent inhibition of Factor 7 mRNA, relative to untreated control cells ([2]; 12.5 nM): 57% | percent inhibition of Factor 7 mRNA, relative to untreated control cells ([2]; 25 nM): 75% | percent inhibition of Factor 7 mRNA, relative to untreated control cells ([2]; 50 nM): 80% | percent inhibition of Factor 7 mRNA, relative to untreated control cells ([2]; 100 nM): 83% | percent inhibition of Factor 7 mRNA, relative to untreated control cells [2]: 35% | percent inhibition of Factor 7 ([2]; Table 3, 3.125 nM): 62% | percent inhibition of Factor 7 ([2]; Table 3, 6.25 nM): 79% | percent inhibition of Factor 7 ([2]; Table 3, 12.5 nM): 83% | percent inhibition of Factor 7 ([2]; Table 3, 25.0 nM): 91% | percent inhibition of Factor 7 ([2]; Table 3, 50.0 nM): 92% | percent inhibition of Factor 7 ([2]; Table 3, 100.0 nM): 92% | percent inhibition of Factor 7 ([2]; Table 7, 6.25 nM): 37% | percent inhibition of Factor 7 ([2]; Table 7, 12.5 nM): 57% | percent inhibition of Factor 7 ([2]; Table 7, 25.0 nM): 77% | percent inhibition of Factor 7 ([2]; Table 7, 50.0 nM): 84% | percent inhibition of Factor 7 ([2]; Table 7, 100.0 nM): 87%

407935 (antisense eA*eT*eG*e[5mC]*eA*dT*dG*dG*dT*dG*dA*dT*dG*d[5mC]*dT*eT*e[5mC]*eT*eG*eA) [compound 407935]
% Inhibition [1, 3]: 94% | % Inhibition ([1]; Table 13 (microwalk), 50 nM): 79% | % Inhibition [1, 4]: 72% | percent inhibition of Factor 7 mRNA, relative to untreated control cells ([2]; 3.125 nM): 19% | percent inhibition of Factor 7 mRNA, relative to untreated control cells ([2]; 12.5 nM): 58% | percent inhibition of Factor 7 mRNA, relative to untreated control cells ([2]; 25 nM): 70% | percent inhibition of Factor 7 mRNA, relative to untreated control cells ([2]; 50 nM): 85% | percent inhibition of Factor 7 mRNA, relative to untreated control cells ([2]; 100 nM): 87% | percent inhibition of Factor 7 mRNA, relative to untreated control cells [2]: 39% | percent inhibition of Factor 7 ([2]; Table 3, 3.125 nM): 57% | percent inhibition of Factor 7 ([2]; Table 3, 6.25 nM): 76% | percent inhibition of Factor 7 ([2]; Table 3, 12.5 nM): 78% | percent inhibition of Factor 7 ([2]; Table 3, 25.0 nM): 89% | percent inhibition of Factor 7 ([2]; Table 3, 50.0 nM): 90% | percent inhibition of Factor 7 ([2]; Table 3, 100.0 nM): 89% | percent inhibition of Factor 7 ([2]; Table 7, 6.25 nM): 38% | percent inhibition of Factor 7 ([2]; Table 7, 12.5 nM): 53% | percent inhibition of Factor 7 ([2]; Table 7, 25.0 nM): 70% | percent inhibition of Factor 7 ([2]; Table 7, 50.0 nM): 82% | percent inhibition of Factor 7 ([2]; Table 7, 100.0 nM): 86%

From patent US9029337B2, “Modulation of factor 7 expression” (Isis Pharmaceuticals, Inc., priority 2007, dated 2015)
